Laboratory results taken from patent publication US11432547B2, “Inhibitors of GRB2-associated binding protein 1 (GAB1) and methods of treating cancer using the same” (Arizona Board of Regents on Behalf of the University of …, priority 2014, dated 2022).
Several values for one entry are separate records, joined by “and”; a condition that tells them apart may be missing. Identical values can stand only once. Like-named read-outs stand apart in the source and are kept apart here.

Tests used:
[1] = tested on: GAB1 Y627 phosphorylation; test: Inhibition of GAB1 Y627 phosphorylation in T47D cells; format: cell-based; settings: Homo sapiens, Y627, 20 μM compound 4 hr, HGF stimulated, read-out: % pGAB1 inhibition
Method: For all biological assays, hit compounds were added at 20 μM concentration directly into the culture media of the cells for 4 hr following a 16 hr incubation of T47D cells without FBS. Cells were stimulated with HGF for 20 min at 50 ng/ml. Following this treatment, cells were lysed and equal amounts of total cell lysate were loaded on a pSer^312-IRS-1/Total IRS-1 Meso Scale Discovery plate as described by the manufacturer. The plate was read using a Sector™Imager 2400A instrument (Meso Scale Discovery protein profiling system, Gaithersburg, Md.). For the measurement of GAB1 phosphorylation, T47D cells were treated as for the phosphorylation of IRS1 evaluation. […] Each experiment was performed at least three times.

[2] = target: T1, GAB1 PH domain (Homo sapiens, UniProt Q13480); test: SPR binding assay, GAB1 PH domain; settings: for Exp. ΔGbind: GAB1, derived from experimental KD or Ki, RT ln(KD)
T1 sequence (Q13480 5-116 limits assumed): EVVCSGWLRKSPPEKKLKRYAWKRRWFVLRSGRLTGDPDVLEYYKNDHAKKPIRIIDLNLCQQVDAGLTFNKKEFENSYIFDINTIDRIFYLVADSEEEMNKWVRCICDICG

[3] = tested on: MDA-MB-231 breast cancer cell line; test: Cellular proliferation assay (MTT), MDA-MB-231; format: cell-based, human; settings: for IC50: Homo sapiens, MDA-MB-231, 96 h, 4 days growth, MTT, IA: Inactive
Method: (§1) Two human breast cancer Cell lines and one normal breast cell line were used for this study: T47D ductal missing highlighted section in original pg. 26Type Culture Collection, Rockville, Md.). T47D and MDA-MB-231 cells were maintained in bulk culture in Dulbecco's modified Eagle medium (DMEM) supplemented with 10% heat-inactivated fetal bovine serum (FBS), 4.5 g/L glucose, 100 U/mL penicillin and […] streptomycin in a 5% CO2 atmosphere. MCF-10A cells were maintained in MEGM with other conditions same as the cancer cell lines. […] Cells were confirmed to be mycoplasma free by testing them with an ELISA kit (Roche-Boehringer Mannheim, Indianapolis, Ind.). The hit compounds were freshly prepared in DMSO at a stock concentration of 10 mM. For the evaluation of cellular proliferation, a standard 96-well micro-cytotoxicity assay was performed as described in reference. Briefly, the assay was set up by plating cells at 5,000-10,000 cells per well (depending on cell doubling time) for a growth period of 4 days. The identified hits were added directly to the media, dissolved in DMSO at various concentrations ranging from 1 to 200 μM. The endpoint was spectrophotometric determination of the reduction of 3-(4,5-dimethylthiazol-2-yl)-2,5-diphenyltetrazolium bromide. All assays were performed in triplicates.

[4] = tested on: T47D breast cancer cell line; test: Cellular proliferation assay (MTT), T47D; format: cell-based, human; settings: for IC50: Homo sapiens, T47D, 96 h, 4 days growth, MTT, IA: Inactive
Method: as §1

[5] = target: T2, IRS1 PH domain (Homo sapiens, UniProt P35568); test: SPR binding assay, IRS1 PH domain (selectivity); settings: derived from experimental KD, RT ln(KD)
T2 sequence (P35568 12-115 limits assumed): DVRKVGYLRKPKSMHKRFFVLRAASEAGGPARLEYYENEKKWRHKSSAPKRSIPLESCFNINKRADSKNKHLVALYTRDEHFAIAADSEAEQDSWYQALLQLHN
Method: The DNA sequences of human GAB1 and IRS1 PH domain (IRS1 is for selectivity evaluation) were cloned into pGEX-4T1 inducible bacterial expression plasmid (GeneStorm, Invitrogen, Carlsbad, Calif.) transformed into BL21 (DE3) E. Coli. Expression and purification of the recombinant proteins were performed. Binding assays were performed using a Biacore 2000 instrument with the Biacore Control Software v3.2 and BIAevaluation v4.1 analysis software (Biacore, Piscataway, N.J.). Briefly, the PH domain GST-fusion proteins were immobilized on a CMS Sensorchip (Biacore BR-1000-12) using Biacore's Amine Coupling Kit (Biacore BR-1000-50) to a level of 10,000 Response units (RUs). Small molecule analytes at concentrations ranging from one tenth to ten times the predicted KD were injected at a high flow rate (30 μL/min). Dimethylsulfoxide (DMSO) concentrations in all samples and running buffer were 1% (v/v) or less. […] The inventors did triplicate SPR assays for each concentration.

[6] = tested on: MCF-10A breast epithelial cell line; test: Cellular proliferation assay, MCF-10A; format: cell-based, human; settings: data not shown
Method: Two human breast cancer Cell lines and one normal breast cell line were used for this study: T47D ductal missing highlighted section in original pg. 26Type Culture Collection, Rockville, Md.). T47D and MDA-MB-231 cells were maintained in bulk culture in Dulbecco's modified Eagle medium (DMEM) supplemented with 10% heat-inactivated fetal bovine serum (FBS), 4.5 g/L glucose, 100 U/mL penicillin and […] streptomycin in a 5% CO2 atmosphere. MCF-10A cells were maintained in MEGM with other conditions same as the cancer cell lines. Cells were passaged using 0.25% trypsin and 0.02% EDTA. Cells were confirmed to be mycoplasma free by testing them with an ELISA kit (Roche-Boehringer Mannheim, Indianapolis, Ind.). The hit compounds were freshly prepared in DMSO at a stock concentration of 10 mM. For the evaluation of cellular proliferation, a standard 96-well micro-cytotoxicity assay was performed as described in reference. Briefly, the assay was set up by plating cells at 5,000-10,000 cells per well (depending on cell doubling time) for a growth period of 4 days. The identified hits were added directly to the media, dissolved in DMSO at various concentrations ranging from 1 to 200 μM. The endpoint was spectrophotometric determination of the reduction of 3-(4,5-dimethylthiazol-2-yl)-2,5-diphenyltetrazolium bromide. All assays were performed in triplicates.

[7] = tested on: MDA-MB-468 cell line; test: Cellular proliferation assay, MDA-MB-468; format: cell-based; settings: Homo sapiens, printed in MDA-MB-231 column with ** footnote, read-out: IC50 (μM), MDA-MB-468 cell line used
[8] = target: GAB2 PH domain (Homo sapiens, UniProt Q9UQC2); test: Follow-up experiments, GAB2 PH domain; format: binding
[9] = competitive binding vs PtdIns(3,4,5)P3 liposomes, values with asterisk, read-out: Kn or Ki (μM) GAB1, *Ki measurement

Chain of GAB2 PH domain (Q9UQC2 6-117 limits assumed): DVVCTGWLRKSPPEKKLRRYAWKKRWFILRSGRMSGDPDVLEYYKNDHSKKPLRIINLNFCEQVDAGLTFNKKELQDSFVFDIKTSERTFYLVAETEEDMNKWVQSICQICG

Structure (SMILES) | inhibition at 20 µM [1] [%] | IC50 [3] [µM] | IC50 [4] [µM] | further results
CCCCCCCCCCCCCCCCCCOC[C@H](COP(=O)(O)OC1C(O)[C@@H](O)C(O)C[C@H]1O)OC (stereo partly drawn) [DPIEL, reference compound] | 72 | – | – | –
O=S(=O)(NCc1csc2ccc(Cl)cc12)c1cc(S(=O)(=O)c2ccccc2)cs1 [GAB-001] | 55 | 40.3 ± 1.3 | 23.7 ± 2.7 | Exp. ΔGbind [2]: -6.91 kcal/mol; Ki [2, 9]: 9.4 µM and 9.38 µM
Cn1cnc(S(=O)(=O)Nc2ccccc2SCCS(=O)(=O)c2ccc(Cl)cc2)c1 [GAB-002] | 32 | 143 ± 11.6 | 138 ± 6.9 | –
Cc1nc(-c2cnc(S(=O)(=O)N3CCN(C4c5ccccc5-c5ccccc54)CC3)s2)cs1 [GAB-003] | 14 | 85.2 ± 7.2 | 13.9 ± 0.6 | –
O=c1[nH]nc(SCc2csc(-c3ccccc3)n2)n1Cc1ccco1 [GAB-004] | 81 | 66.6 ± 4.6 | 19.4 ± 2.9 | Exp. ΔGbind [2]: -7.78 kcal/mol
CS(=O)(=NS(=O)(=O)c1ccc(-c2ccccn2)s1)c1ccc(Cl)cc1 (stereo not drawn) [GAB-005] | 6 | > 200 | > 200 | –
Cc1cc2ncc(-c3cnc(SCCS(=O)(=O)c4ccc(Cl)cc4)nc3)c(C)n2n1 [GAB-006] | 16 | – | 101 ± 1.8 | –
CS(=O)(=O)CCSc1ncccc1C(=O)Sc1ccc(Cl)cc1Cl [GAB-007] | 53 | 4.6 ± 0.7 | 20.1 ± 4.3 | Exp. ΔGbind [2]: -6.01 kcal/mol; Ki ([2]; SPR direct binding, values without asterisk, NB: No Binding, read-out: Kn or Ki (μM) GAB1): 42.3 ± 8.9 µM; Exp. ΔGbind [5]: -7.93 kcal/mol
O=S(=O)(NCc1csc(-c2cccs2)n1)c1ccc(N2CCOCC2)nc1 [GAB-008] | 8 | > 200 | 43.2 ± 3.2 | –
Cc1noc(C)c1NC(=O)NCc1csc(-c2cccs2)n1 [GAB-009] | 38 | 163 ± 6 | 97.6 ± 6.1 | –
Cc1onc(-c2ccccc2)c1-c1nc(CSc2nc3ccccc3[nH]2)no1 [GAB-010] | 92 | 66 ± 4.4 | 23.8 ± 4.2 | Exp. ΔGbind [5]: -9.51 kcal/mol
Cn1c(Cc2ccsc2)nnc1SCC(=O)Nc1cc(Cl)cc(Cl)c1 [GAB-011] | 24 | > 200 | > 200 | –
O=C(O)c1ccccc1C(=O)Nc1ccccc1SCCS(=O)(=O)c1ccc(Cl)cc1 [GAB-012] | 43 | > 200 | 119 ± 3.6 | toxicity to MCF-10A at 100 μM [6]: toxic; killing of MDA-MB-231 at 50 μM [3]: did not effectively kill; killing of T47D at 50 μM [4]: did not effectively kill
COc1cc(NS(=O)(=O)c2ccc(NS(=O)(=O)c3c(C)noc3C)cc2)nc(OC)n1 [GAB-013] | 27 | > 200 | > 200 | toxicity to MCF-10A at 100 μM [6]: toxic; killing of MDA-MB-231 at 50 μM [3]: did not effectively kill; killing of T47D at 50 μM [4]: did not effectively kill
Cc1nnc(NS(=O)(=O)c2ccc(NS(=O)(=O)c3ccc4ccccc4c3)cc2)s1 [GAB-014] | 42 | – | 178 ± 3.9 | IC50 [7]: 69.9 ± 0.1 µM
CCCCCCCCCCCCc1ccc(S(=O)(=O)Nc2nnc(CC(=O)O)s2)cc1 [GAB-015] | – | – | 125 ± 5.4 | Ki [2, 9]: 13.1 ± 1.5 µM; inhibition at 20 µM ([1]; T47D, 4 h): 77%
CCCCCCCCCCCCc1ccc(S(=O)(=O)Nc2nnc(CC(=O)OCC)s2)cc1 [GAB-016] | – | – | – | targeting of GAB2 PH domain [8]: targets GAB2 PH domain; Exp. ΔGbind [2]: -8.31 kcal/mol; Exp. ΔGbind [5]: -9.38 kcal/mol; inhibition at 20 µM ([1]; T47D, 4 h): > 80%
CCCCCCCCCCCCc1ccc(S(=O)(=O)Nc2nnc(C(=O)OCC)s2)cc1 [GAB-017] | – | – | – | Exp. ΔGbind [2]: -8.47 kcal/mol; inhibition at 20 µM ([1]; T47D, 4 h): > 80%
CCCCCCCCCCCCc1ccc(S(=O)(=O)Nc2nnc(S(N)(=O)=O)s2)cc1 [GAB-018] | – | – | 185 ± 2.5 | Ki [2, 9]: 36.6 ± 5 µM; killing of MDA-MB-231 at 50 μM [3]: did not effectively kill; inhibition at 20 µM ([1]; T47D, 4 h): 71%; killing of T47D at 50 μM [4]: did not effectively kill
CCc1ccc(C(=O)OC)cc1CSc1nnc(-c2ccc(C(F)(F)F)cc2)n1Cc1ccoc1 [GAB-019] | 91 | – | 39.4 ± 6.2 | –
CCCCCCCCCCCCc1ccc(S(=O)(=O)Nc2nncs2)cc1 [GAB-020] | 87 | – | – | –
